The text below walks through data of ChEMBL document CHEMBL1128136, “and -N-[(1-benzyl-1H-imidazol-5-yl)-alkyl]-amino acids as angiotensin II AT-1 antagonists” (Bioorg Med Chem Lett, 1995).

As usually defined, the IC50 is the concentration needed to halve the response being measured.

In test [1] the target is T1, Angiotensin II receptor (AT-1) type-1 (Rattus norvegicus, UniProt P29089+P25095).
T1 sequence (P29089 whole entry): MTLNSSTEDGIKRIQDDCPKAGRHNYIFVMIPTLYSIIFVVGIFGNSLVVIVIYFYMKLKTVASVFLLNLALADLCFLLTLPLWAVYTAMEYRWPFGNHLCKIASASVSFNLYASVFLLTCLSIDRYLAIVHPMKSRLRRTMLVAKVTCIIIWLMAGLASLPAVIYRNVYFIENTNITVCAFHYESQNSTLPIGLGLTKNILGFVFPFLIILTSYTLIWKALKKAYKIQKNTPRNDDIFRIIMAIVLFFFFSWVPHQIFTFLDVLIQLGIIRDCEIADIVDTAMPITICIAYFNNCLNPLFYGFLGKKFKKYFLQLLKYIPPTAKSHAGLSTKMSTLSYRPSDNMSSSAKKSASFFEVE
T1 sequence (P25095 whole entry): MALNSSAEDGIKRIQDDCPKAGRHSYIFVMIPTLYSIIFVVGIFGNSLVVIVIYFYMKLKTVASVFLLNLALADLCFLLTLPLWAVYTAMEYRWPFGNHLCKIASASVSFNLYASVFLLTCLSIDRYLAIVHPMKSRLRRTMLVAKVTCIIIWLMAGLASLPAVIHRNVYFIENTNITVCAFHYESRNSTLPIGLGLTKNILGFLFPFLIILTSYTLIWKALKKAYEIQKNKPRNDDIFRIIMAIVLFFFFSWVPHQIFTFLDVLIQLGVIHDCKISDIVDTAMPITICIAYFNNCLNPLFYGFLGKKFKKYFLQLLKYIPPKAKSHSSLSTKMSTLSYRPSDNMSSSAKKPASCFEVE
In words: Compound was tested for inhibition of 125 I-Angiotensin II specific binding to rat mesenteric arteries. The test is classed as protein assay.

For test [2], the species on record is Oryctolagus cuniculus. In words: Compound was tested for inhibition of Angiotensin II-induced vasoconstriction of rabbit aorta. It is filed as functional.
Test [3] addresses T2, Type-1 angiotensin II receptor (Homo sapiens, UniProt P30556).
T2 sequence (P30556 whole entry): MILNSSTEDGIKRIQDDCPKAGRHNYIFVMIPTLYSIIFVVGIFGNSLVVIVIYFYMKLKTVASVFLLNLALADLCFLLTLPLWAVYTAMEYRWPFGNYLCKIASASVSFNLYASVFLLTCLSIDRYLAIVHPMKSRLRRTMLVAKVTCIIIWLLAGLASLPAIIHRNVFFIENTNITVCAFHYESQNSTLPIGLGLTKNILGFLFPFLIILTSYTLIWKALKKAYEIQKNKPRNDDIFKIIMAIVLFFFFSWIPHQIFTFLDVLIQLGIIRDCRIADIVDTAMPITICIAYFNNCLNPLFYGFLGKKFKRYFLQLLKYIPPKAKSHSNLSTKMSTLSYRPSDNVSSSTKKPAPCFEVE
In words: Tested for inhibition of Angiotensin II specific binding to Angiotensin II receptor, type 1 in the recombinant human AT-1 receptor expressed in LhAT-1D6 cells. It is filed as cell-based.

The species named for test [4] is Oryctolagus cuniculus. Description: Compound was tested for Non-competitive inhibition ofAngiotensin II -induced vasoconstriction of rabbit aorta. It is filed as functional.

`CCCCc1ncc(CN[C@@H](Cc2ccccc2)C(=O)O)n1Cc1ccc(C(=O)O)cc1`: in test [1], the IC50 was determined as 517 nM. The compound also came in with a Kb in the test listed under Oryctolagus cuniculus [2] of 125 nM.

For `CCCCc1ncc(CN[C@@H](Cc2c[nH]c3ccccc23)C(=O)O)n1Cc1ccc(C(=O)O)cc1`, the IC50 in test [3] was 48.3 nM. For the same compound, the Kb in the test filed under Oryctolagus cuniculus [2] worked out at 885 nM.

As for `CCCCc1ncc(CNCC(=O)O)n1Cc1ccc(C(=O)O)cc1`, the half-inhibitory concentration (IC50) in test [3] worked out at 298 nM. The Kb in the test listed under Oryctolagus cuniculus [2] was determined as 335 nM.

In turn, `CCCCc1ncc(CN(CC(=O)O)Cc2cccs2)n1Cc1ccc(C(=O)O)cc1` yielded an IC50 in test [1] of 169 nM. For the same compound, the Kb in the test listed under Oryctolagus cuniculus [2] was determined as 2.4 nM.

`CCCCc1ncc(CN[C@@H](C(=O)O)C(C)c2ccccc2)n1Cc1ccc(C(=O)O)cc1` (stereo partly drawn) yielded an IC50 in test [1] of 28 nM. In addition, in the test listed under Oryctolagus cuniculus [4], the Kb is 0.6 nM. As for `CCCCc1ncc(CN[C@@H](Cc2cccs2)C(=O)O)n1Cc1ccc(C(=O)O)cc1`, the IC50 in test [1] is 673 nM. The same compound gave a Kb in the test listed under Oryctolagus cuniculus [2] of 63 nM. As for `CCCCc1ncc(CN[C@H](Cc2c[nH]c3ccccc23)C(=O)O)n1Cc1ccc(C(=O)O)cc1`, the IC50 in test [3] is 2.9 nM. The compound further displayed a Kb in the test filed under Oryctolagus cuniculus [2] of 48 nM. Compound `CCCCc1ncc(CN(CC(=O)O)Cc2ccccc2)n1Cc1ccc(C(=O)O)cc1` showed a half-inhibitory concentration (IC50) in test [1] of 31 nM. Also, the Kb in the test filed under Oryctolagus cuniculus [2] is 11 nM. In the same order, the values of `CCCCc1ncc(CN[C@H](Cc2cccs2)C(=O)O)n1Cc1ccc(C(=O)O)cc1` are 36.7 nM and 5 nM. In test [1], `CCCCc1ncc(CN[C@H](C(=O)O)C(C)c2ccccc2)n1Cc1ccc(C(=O)O)cc1` (stereo partly drawn) registered an IC50 of 176 nM. In the test filed under Oryctolagus cuniculus [2], this compound came in with a Kb of 117 nM.

For the compound `CCCCc1ncc(CN[C@H](Cc2ccccc2)C(=O)O)n1Cc1ccc(C(=O)O)cc1`, the IC50 in test [1] came out at 3.8 nM. In the test filed under Oryctolagus cuniculus [2], this compound returned a Kb of 3.6 nM. In turn, `CCCCc1ncc(/C=C(\Cc2cccs2)C(=O)O)n1Cc1ccc(C(=O)O)cc1` [EPROSARTAN] gave a Kb in the test filed under Oryctolagus cuniculus [2] of 0.21 nM.
